For experiment [1], the target named is human GlyT1c transporter (Homo sapiens (Human), UniProt P48067). As to the kind of experiment: Radioligand binding assay using recombinant CHO cell membranes expressing human GlyT1. The note with it: radioligand [3H]-(R)-NPTS (examples 1-19, 22-52, 54-87), read-out: radioligand binding Kiapp. The method, boiled down:
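Apparent Ki values were derived by Cheng-Prusoff from one-site IC50 fits of displacement curves. Membranes from recombinant CHO cells (human GlyT1c, 50 μg/ml) were incubated 1 h at room temperature with 0.5 nM [^3H]-(R)-NPTS and test compound (1% DMSO, pH 7.5 buffer), with 10 μM Org24598 for non-specific binding, then filtered and counted.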

Experiment [2] addresses human GlyT1c (Homo sapiens (Human), UniProt P48067). Briefly: [3H]-Glycine uptake into recombinant CHO cells expressing human GlyT1. Particulars: hGlyT1c_5_CHO cells, 200 nM [3H]-glycine. In kind it is cell-based. The method, boiled down: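 hGlyT1c-expressing CHO cells plated at 20,000 cells/well and cultured 24 h; [3H]-glycine incorporation read continuously by solid-phase scintillation for up to 3 h. IC50 from four-parameter logistic fit using the linear uptake phase between 60 and 120 min.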

Where a name gives a salt, the structure may show the parent alone.

Sequence of human GlyT1c transporter (P48067 whole entry): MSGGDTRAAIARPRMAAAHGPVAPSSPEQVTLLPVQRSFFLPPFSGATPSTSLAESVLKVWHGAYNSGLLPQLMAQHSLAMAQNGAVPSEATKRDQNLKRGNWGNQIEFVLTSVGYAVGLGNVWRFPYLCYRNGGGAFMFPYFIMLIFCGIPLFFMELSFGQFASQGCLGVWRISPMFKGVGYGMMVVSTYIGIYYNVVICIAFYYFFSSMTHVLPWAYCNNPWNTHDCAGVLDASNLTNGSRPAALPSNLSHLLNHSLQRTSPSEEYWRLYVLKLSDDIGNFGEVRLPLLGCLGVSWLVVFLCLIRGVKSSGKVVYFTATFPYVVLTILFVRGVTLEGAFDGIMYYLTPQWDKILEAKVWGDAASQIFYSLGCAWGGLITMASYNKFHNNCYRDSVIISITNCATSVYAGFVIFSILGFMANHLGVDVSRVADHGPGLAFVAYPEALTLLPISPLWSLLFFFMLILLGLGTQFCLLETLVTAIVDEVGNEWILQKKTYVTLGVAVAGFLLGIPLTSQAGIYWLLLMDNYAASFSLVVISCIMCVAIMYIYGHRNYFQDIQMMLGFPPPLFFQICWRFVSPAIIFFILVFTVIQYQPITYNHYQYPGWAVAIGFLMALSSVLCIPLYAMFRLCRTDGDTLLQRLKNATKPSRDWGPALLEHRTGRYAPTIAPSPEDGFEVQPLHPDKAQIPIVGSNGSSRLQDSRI
Sequence of human GlyT1c (P48067 whole entry): as above

What is called IC50 is the concentration that inhibits the measured activity by half. As to `O=S(=O)(NCCOc1ccc2c(c1)C(C1(c3ccc(Cl)cc3)CCC1)NCC2)c1cccs1` (centres unmarked) [Example 17, Thiophene-2-sulfonic acid (2-{1-[1-(4-chloro-phenyl)-cyclobutyl]-1,2,3,4-tetrahydro-isoquinolin-7-yloxy}-ethyl)-amide hydrochloride], the Ki in experiment [1] was no more than 1000 nM. Moreover, the IC50 in experiment [2] is no more than 100 nM.
With `COc1ccccc1S(=O)(=O)NCCOc1ccc2c(c1)C(C1(c3ccc(Cl)cc3)CCC1)NCC2` (centres unmarked) [Example 18, N-(2-{1-[1-(4-Chloro-phenyl)-cyclobutyl]-1,2,3,4-tetrahydro-isoquinolin-7-yloxy}-ethyl)-2-methoxy-benzenesulfonamide hydrochloride], in experiment [1], the Ki is no more than 10000 nM. For the same molecule, in experiment [2], the IC50 was no more than 1000 nM.
Turning to `COc1cccc(S(=O)(=O)NCCOc2ccc3c(c2)C(C2(c4ccc(Cl)cc4)CCC2)NCC3)c1` (centres unmarked) [Example 19, N-(2-{1-[1-(4-Chloro-phenyl)-cyclobutyl]-1,2,3,4-tetrahydro-isoquinolin-7-yloxy}-ethyl)-3-methoxy-benzenesulfonamide hydrochloride], the Ki in experiment [1] is no more than 10000 nM. Besides, the IC50 in experiment [2] is no more than 10000 nM.
As to `O=S(=O)(NCCOc1ccc2c(c1)C(C1(c3ccc(Cl)cc3)CCC1)NCC2)c1ccc(-c2ccon2)s1` (centres unmarked) [Example 22, 5-Isoxazol-3-yl-thiophene-2-sulfonic acid (2-{1-[1-(4-chloro-phenyl)-cyclobutyl]-1,2,3,4-tetrahydro-isoquinolin-7-yloxy}-ethyl)-amide hydrochloride], the Ki in experiment [1] was no more than 100000 nM. Besides, in experiment [2], the IC50 was no more than 10000 nM.
Consider `N#Cc1ccccc1S(=O)(=O)NCCOc1ccc2c(c1)C(C1(c3ccc(Cl)cc3)CCC1)NCC2` (centres unmarked) [Example 23, N-(2-{1-[1-(4-Chloro-phenyl)-cyclobutyl]-1,2,3,4-tetrahydro-isoquinolin-7-yloxy}-ethyl)-2-cyano-benzenesulfonamide hydrochloride], for which, in experiment [1], the Ki is no more than 10000 nM. The IC50 in experiment [2] was no more than 10000 nM.
For the molecule `N#Cc1ccc(S(=O)(=O)NCCOc2ccc3c(c2)C(C2(c4ccc(Cl)cc4)CCC2)NCC3)cc1` (centres unmarked) [Example 24, N-(2-{1-[1-(4-Chloro-phenyl)-cyclobutyl]-1,2,3,4-tetrahydro-isoquinolin-7-yloxy}-ethyl)-4-cyano-benzenesulfonamide hydrochloride], the Ki in experiment [1] was no more than 10000 nM. For the same molecule, in experiment [2], the IC50 was no more than 1000 nM.
Take `O=S(=O)(NCCOc1ccc2c(c1)C(C1(c3ccc(Cl)cc3)CCC1)NCC2)c1ccccc1Cl` (centres unmarked) [Example 25, 2-Chloro-N-(2-{1-[1-(4-chloro-phenyl)-cyclobutyl]-1,2,3,4-tetrahydro-isoquinolin-7-yloxy}-ethyl)-benzenesulfonamide hydrochloride]: in experiment [1], the Ki is no more than 1000 nM. Moreover, in experiment [2], the half-inhibitory concentration (IC50) is no more than 1000 nM.
Regarding `O=S(=O)(NCCOc1ccc2c(c1)C(C1(c3ccc(Cl)cc3)CCC1)NCC2)c1cccc(Cl)c1` (centres unmarked) [Example 26, 3-Chloro-N-(2-{1-[1-(4-chloro-phenyl)-cyclobutyl]-1,2,3,4-tetrahydro-isoquinolin-7-yloxy}-ethyl)-benzenesulfonamide hydrochloride], the Ki in experiment [1] is no more than 10000 nM. In addition, the IC50 in experiment [2] is no more than 1000 nM.
For `O=S(=O)(NCCOc1ccc2c(c1)C(C1(c3ccc(Cl)cc3)CCC1)NCC2)c1ccc(Cl)cc1` (centres unmarked) [Example 27, 4-Chloro-N-(2-{1-[1-(4-chloro-phenyl)-cyclobutyl]-1,2,3,4-tetrahydro-isoquinolin-7-yloxy}-ethyl)-benzenesulfonamide hydrochloride] the same measures were no more than 1000 nM and no more than 1000 nM.
For `O=S(=O)(NCCOc1ccc2c(c1)C(C1(c3ccc(Cl)cc3)CCC1)NCC2)C1CC1` (centres unmarked) [Example 28, Cyclopropanesulfonic acid (2-{1-[1-(4-chloro-phenyl)-cyclobutyl]-1,2,3,4-tetrahydro-isoquinolin-7-yloxy}-ethyl)-amide hydrochloride], the Ki in experiment [1] was no more than 100 nM. Moreover, the 50% inhibitory concentration (IC50) in experiment [2] was no more than 100 nM.

The values are drawn from patent publication US8653100B2 (AbbVie Inc., priority 2008, dated 2014).
